Measured values: patent US4468403A, “Analgesic substituted piperidylidene-2-sulfon(cyan)amide derivatives” (priority 1982, dated 1984)
Like-named read-outs stand apart in the source and are kept apart here.

Type: in vivo, male Swiss albino mice
Settings: for Analgesic action, inhibition action on phenylquinone writhing, % inhibition / Analgesic action, inhibition action on phenylquinone writhing: dose giving 50 % inhibition: subcutaneous; for Analgesic action, inhibition action on phenylquinone writhing: dose giving 50 % inhibition: 30 min before phenyl-p-benzoquinone, dose with 50 % inhibition; for % Inhibn, control (single agent) in antagonist study: alone; for Analgesic (agonist) activity, in words: phenylquinone writhing, mice
Protocol: The percent change is calculated according to the following equation: % change=100- (no. of writhes in treated group/no. of writhes in control group)×100.

[1] = at the dose listed for the substance under E1

Compound | Analgesic action, inhibition action on phenylquinone writhing: dose giving 50 % inhibition [mg/kg] | Analgesic action, inhibition action on phenylquinone writhing, % inhibition [1] [%] | Analgesic (agonist) activity, in words | further results
CCCN1CCCCC1=NS(=O)(=O)c1ccc(N)cc1 [Compound W-27, 1-n-Propylpiperidylidene-2-(4-aminophenyl)sulfonamide] |  |  |  | Analgesic action, inhibition action on phenylquinone writhing, % inhibition (dose 2.0 mg/kg (Table 3)): 59%
CCCN1CCCCC1=NS(=O)(=O)c1cccnc1 [Compound W-28, 1-n-Propylpiperidylidene-2-(3-pyridyl)sulfonamide] |  |  |  | Analgesic action, inhibition action on phenylquinone writhing, % inhibition (dose 2.0 mg/kg (Table 3)): 82%
CC(=O)Nc1ccc(S(=O)(=O)N=C2CCCCN2C)cc1 [Compound W-12, 1-Methylpiperidylidene-2-(4-acetamidophenyl)sulfonamide] | 1.2 | 50 |  | 
CCC(=O)O[C@](Cc1ccccc1)(c1ccccc1)[C@H](C)CN(C)C [Dextropropoxyphene (TM), reference compound] | 56.0 | 50 |  | 
O=S(=O)(N=C1CCCCN1CC1CCC1)c1ccc(Cl)cc1 [Compound W-23, 1-Cyclobutylmethylpiperidylidene-2-(4-chlorophenyl)sulfonamide] | 0.01 | 50 |  | 
C/C=C/N1CCCCC1=NS(=O)(=O)c1ccc(Cl)cc1 [Compound W-32, E-1-(1-Propenyl)piperidylidene-2-(4-chlorophenyl)sulfonamide] | 0.013 | 50 |  | 
CC(=O)Oc1ccccc1C(=O)O [Aspirin (TM), reference compound] | 50.0 | 50 |  | 
CN1CCCCC1=NS(=O)(=O)c1ccc(Cl)cc1 [Compound W-3, 1-Methylpiperidylidene-2-(4-chlorophenyl)sulfonamide] | 0.0038 | 50 | active analgesics, being comparable to morphine sulfate | % Inhibn, control (single agent) in antagonist study (2.0 mg/kg sc): 97%; % Inhibn, control (single agent) in antagonist study (5.0 mg/kg sc): 100%
COc1ccc(S(=O)(=O)N=C2CCCCN2C)cc1 [Compound W-4, 1-Methylpiperidylidene-2-(4-methoxyphenyl)sulfonamide] | 0.002 | 50 | active analgesics, being comparable to morphine sulfate | 
O=[N+]([O-])c1ccc(CCN2CCCCC2=NS(=O)(=O)c2ccc(Cl)cc2)cc1 [Compound W-18, 1-(4-Nitrophenylethyl)piperidylidene-2-(4-chlorophenyl)sulfonamide] |  | 50 |  | 
Nc1ccc(S(=O)(=O)N=C2CCCCN2CCc2ccccc2)cc1 [Compound W-16, 1-Phenylethylpiperidylidene-2-(4-aminophenyl)sulfonamide] |  |  | active analgesics, being comparable to morphine sulfate | Analgesic action, inhibition action on phenylquinone writhing, % inhibition (dose 0.20 mg/kg): 56%
CN1CCCCC1=NS(=O)(=O)c1ccccc1[N+](=O)[O-] [Compound W-8, 1-Methylpiperidylidene-2-(2-nitrophenyl)sulfonamide] | 0.0018 | 50 | active analgesics, being comparable to morphine sulfate | 
Nc1ccc(S(=O)(=O)N=C2CCCCN2CC2CCC2)cc1 [Compound W-24, 1-Cyclobutylmethylpiperidylidene-2-(4-aminophenyl)sulfonamide] |  |  |  | Analgesic action, inhibition action on phenylquinone writhing, % inhibition (dose 0.20 mg/kg): 61%
Nc1ccc(S(=O)(=O)N=C2CCCCN2CC2CC2)cc1 [Compound W-21, 1-Cyclopropylmethylpiperidylidene-2-(4-aminophenyl)sulfonamide] |  |  |  | Analgesic action, inhibition action on phenylquinone writhing, % inhibition (dose 2.0 mg/kg (Table 3)): 49%
O=S(=O)(N=C1CCCCN1CCc1ccccc1)c1ccc(Cl)cc1 [Compound W-15, 1-Phenylethylpiperidylidene-2-(4-chlorophenyl)sulfonamide] | 0.007 | 50 | active analgesics, being comparable to morphine sulfate | 
CC(C)CN1CCCCC1=NS(=O)(=O)c1ccc(Cl)cc1 [Compound W-29, 1-Isobutylpiperidylidene-2-(4-chlorophenyl)sulfonamide] | 2.0 |  |  | Analgesic action, inhibition action on phenylquinone writhing, % inhibition (dose 2.0 mg/kg (Table 3)): 50%
CN1CCCCC1=NS(=O)(=O)c1cccc([N+](=O)[O-])c1 [Compound W-7, 1-Methylpiperidylidene-2-(3-nitrophenyl)sulfonamide] | 0.0028 | 50 | active analgesics, being comparable to morphine sulfate | 

Compound | Analgesic action, inhibition action on phenylquinone writhing: dose giving 50 % inhibition [mg/kg] | Analgesic action, inhibition action on phenylquinone writhing, % inhibition [1] [%] | Analgesic (agonist) activity, in words | further results
CN1CCCCC1=NS(=O)(=O)c1ccccc1 [Compound W-2, 1-Methylpiperidylidene-2-benzenesulfonamide] | 68.0 | 50 |  | 
O=S(=O)(N=C1CCCCN1CC1CCC1)c1cccnc1 [Compound W-25, 1-Cyclobutylmethylpiperidylidene-2-(3-pyridyl)sulfonamide] |  |  |  | Analgesic action, inhibition action on phenylquinone writhing, % inhibition (dose 0.20 mg/kg): 69%
CN1CCCC(Br)C1=NC#N (racemic) [Compound 0-1, 3-Bromo-1-methylpiperidylidene-2-cyanamide] | 0.7 | 50 |  | 
CC(C)CN1CCCCC1=NS(=O)(=O)c1ccc(N)cc1 [Compound W-30, 1-Isobutylpiperidylidene-2-(4-aminophenyl)sulfonamide] |  |  |  | Analgesic action, inhibition action on phenylquinone writhing, % inhibition (dose 2.0 mg/kg (Table 3)): 59%
CC(C)CN1CCCCC1=NS(=O)(=O)c1cccnc1 [Compound W-31, 1-Isobutylpiperidylidene-2-(3-pyridyl)sulfonamide] |  |  |  | Analgesic action, inhibition action on phenylquinone writhing, % inhibition (dose 2.0 mg/kg (Table 3)): 65%
CN1CCCCC1=NS(=O)(=O)c1ccc(N)cc1 [Compound W-9, 1-Methylpiperidylidene-2-(4-aminophenyl)sulfonamide] | 0.007 | 50 | active analgesics, being comparable to morphine sulfate | 
CN1CCCCC1=NC#N [Compound W-13, 1-Methylpiperidylidene-2-cyanamide] | 6.0 | 50 |  | 
CN1CCCCC1=NS(=O)(=O)c1ccccc1N [Compound W-11, 1-Methylpiperidylidene-2-(2-aminophenyl)sulfonamide] | 0.00024 | 50 | active analgesics, being comparable to morphine sulfate | 
O=S(=O)(N=C1CCCCN1CC1CC1)c1cccnc1 [Compound W-22, 1-Cyclopropylmethylpiperidylidene-2-(3-pyridyl)sulfonamide] | 2.0 |  |  | Analgesic action, inhibition action on phenylquinone writhing, % inhibition (dose 2.0 mg/kg (Table 3)): 50%
CCCN1CCCCC1=NS(=O)(=O)c1ccc(Cl)cc1 [Compound W-26, 1-n-Propylpiperidylidene-2-(4-chlorophenyl)sulfonamide] | 1.4 | 50 |  | 
Nc1ccc(CCN2CCCCC2=NS(=O)(=O)c2ccc(Cl)cc2)cc1 [Compound W-19, 1-(4-Aminophenylethyl)piperidylidene-2-(4-chlorophenyl)sulfonamide] |  | 50 |  | 
Cc1ccc(S(=O)(=O)N=C2CCCCN2C)cc1 [Compound W-5, 1-Methylpiperidylidene-2-(4-methylphenyl)sulfonamide] | 2.4 | 50 |  | 
CN1CCCCC1=NS(=O)(=O)c1ccc([N+](=O)[O-])cc1 [Compound W-6, 1-Methylpiperidylidene-2-(4-nitrophenyl)sulfonamide] | 0.0028 | 50 | active analgesics, being comparable to morphine sulfate | 
O=S(=O)(N=C1CCCCN1CCc1ccccc1)c1cccnc1 [Compound W-17, 1-Phenylethylpiperidylidene-2-(3-pyridyl)sulfonamide] |  |  | active analgesics, being comparable to morphine sulfate | Analgesic action, inhibition action on phenylquinone writhing, % inhibition (dose 0.20 mg/kg): 65%
CN1CCCCC1=NS(C)(=O)=O [Compound W-1, 1-Methylpiperidylidene-2-methanesulfonamide] | 108.0 | 50 |  | 
CN1CCCCC1=NS(=O)(=O)c1cccnc1 [Compound W-14, 1-Methylpiperidylidene-2-(3-pyridyl)sulfonamide] | 0.00038 | 50 | active analgesics, being comparable to morphine sulfate | 
CN1CCCCC1=NS(=O)(=O)c1cccc(N)c1 [Compound W-10, 1-Methylpiperidylidene-2-(3-aminophenyl)sulfonamide] | 0.0017 | 50 | active analgesics, being comparable to morphine sulfate | 
